Source: PubChem BioAssay (NCI)
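Assay format: 96-well plates, 48-hour exposure. GI50 = concentration required for 50% inhibition of growth. The concentration for full growth arrest is given as TGI.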

Legend:
Assay in all cases: NCI tumour cell line growth inhibition, 48 h
[1] = tested on: KM20L2 colon
[2] = tested on: XF 498 CNS
[3] = tested on: DMS 273 small cell lung
[4] = tested on: DMS 114 small cell lung
[5] = tested on: MDA-N
[6] = tested on: SNB-78 CNS
[7] = tested on: M19-MEL melanoma
[8] = tested on: HOP-18 NSCLC
[9] = tested on: RXF-631 renal

SMILES: COC1(OC)CCC2(C)OC(c3ccccc3)C1O2 (centres undefined)
- TGI [1]: > 100 µM
- TGI [2]: > 100 µM
- TGI [3]: > 100 µM
- TGI [4]: > 100 µM

SMILES: C/C(=N\O)C1CC(CC(=O)O)C1(C)C (centres undefined)
- TGI [5]: > 100 µM

SMILES: Cc1[nH]c2ccccc2c1/C=C/c1c(C)[nH]c2ccccc12
- TGI [1]: > 100 µM
- TGI [2]: > 100 µM
- TGI [6]: > 100 µM
- TGI [3]: > 100 µM
- TGI [4]: > 100 µM
- TGI [7]: > 100 µM

SMILES: CC1(C)CCC2(C(=O)O)C(O)CC3(C)C(=CCC4C5(C)CCC(OC6OCC(O)C(O)C6OC6OCC(O)C(O)C6OC6OCC(O)C(OC7OC(CO)C(O)C(O)C7O)C6O)C(C)(C)C5CCC43C)C2C1 (centres undefined)
- TGI [5]: 57.8 µM

SMILES: CS(=O)(=O)ON1C(=O)c2ccc(N)cc2C1=O
- TGI [1]: > 100 µM
- TGI [2]: > 100 µM
- TGI [6]: > 100 µM
- TGI [3]: > 100 µM
- TGI [4]: > 100 µM
- TGI [7]: > 100 µM
- TGI [8]: > 100 µM
- TGI [9]: > 100 µM

SMILES: CC(=O)[CH-]C(=O)c1ccccc1.CC(=O)[CH-]C(=O)c1ccccc1.CC[C@H](CCC(C)[C@H]1CCC2[C@@H]3CC=C4C[C@@H]([O-])CC[C@]4(C)C3CC[C@@]21C)C(C)C.CC[C@H](CCC(C)[C@H]1CCC2[C@@H]3CC=C4C[C@@H]([O-])CC[C@]4(C)C3CC[C@@]21C)C(C)C.Cl.[Ti+4] (some centres undefined)
- GI50 [1]: > 25 µM
- TGI [1]: > 25 µM
- GI50 [3]: > 25 µM
- TGI [3]: > 25 µM
- GI50 [8]: > 25 µM
- TGI [8]: > 25 µM

SMILES: CN(C)CC1CCCC/C1=N\OC(=O)c1ccccc1 (centres undefined)
- TGI [1]: > 100 µM
- TGI [2]: > 100 µM
- TGI [6]: > 100 µM
- TGI [3]: > 100 µM
- TGI [4]: > 100 µM
- TGI [7]: > 100 µM
- TGI [8]: > 100 µM
- TGI [9]: > 100 µM

SMILES: Cc1cc2c3c(nc4ccccc42)C(=O)c2cccnc2-c3n1
- GI50 [5]: 0.152 µM
- TGI [5]: 0.294 µM

SMILES: CC(=O)[CH-]C(=O)c1ccccc1.CC(=O)[CH-]C(=O)c1ccccc1.CC(=O)[CH-]C(=O)c1ccccc1.[Cl-].[Hf+4]
- GI50 [1]: 25.1 µM
- TGI [1]: > 100 µM
- GI50 [7]: 27.3 µM
- TGI [7]: > 100 µM

SMILES: COC12OCCN(C)C1=CC(=O)C1N=NCC12 (centres undefined)
- TGI [6]: > 100 µM
- TGI [3]: > 100 µM
- TGI [4]: > 100 µM
- TGI [7]: > 100 µM
- TGI [8]: > 100 µM
- TGI [9]: > 100 µM

SMILES: O=C(CC(=O)N1N=C(n2ccc3ccccc32)CC1c1ccccc1)Nc1ccccc1Cl (centres undefined)
- TGI [1]: > 100 µM
- TGI [6]: > 100 µM
- TGI [3]: > 100 µM
- TGI [4]: > 100 µM
- TGI [7]: > 100 µM
- TGI [8]: > 100 µM
- TGI [9]: > 100 µM

SMILES: O=c1[nH]c(-c2ccccc2)nc2cc([N+](=O)[O-])c(/C(Cl)=C/c3ccccc3)cc12
- TGI [1]: > 100 µM
- TGI [6]: > 100 µM
- TGI [3]: > 100 µM
- TGI [4]: > 100 µM
- TGI [7]: > 100 µM

SMILES: N#CC(Cl)CS(=O)(=O)c1ccccc1 (centres undefined)
- TGI [1]: 39.4 µM
- TGI [2]: 9.64 µM
- TGI [6]: 61.3 µM
- TGI [4]: 9.34 µM
- TGI [7]: 29.2 µM
- TGI [5]: 20.2 µM
- TGI [8]: 22 µM

SMILES: COc1c(CC(C)=O)c2ccccc2n1C(C)=O
- TGI [1]: > 100 µM
- TGI [2]: > 100 µM
- TGI [6]: > 100 µM
- TGI [3]: > 100 µM
- TGI [7]: > 100 µM
- TGI [8]: > 100 µM
- TGI [9]: > 100 µM

SMILES: C/C(=C\CNc1ncnc2c1ncn2C1CCCCO1)COP(=O)(O)O (centres undefined)
- TGI [1]: > 100 µM
- TGI [2]: > 100 µM
- TGI [6]: > 100 µM
- TGI [3]: > 100 µM
- TGI [4]: > 100 µM
- TGI [7]: > 100 µM
- TGI [8]: > 100 µM
- TGI [9]: > 100 µM

SMILES: O=C(CCl)N1CCN(c2ccccc2)CC1
- TGI [5]: 39.9 µM

SMILES: [pH]1p2[pH]p3p1p3[pH]2.c1cc[c]([Ge]([c]2ccccc2)[c]2ccccc2)cc1.c1cc[c]([Ge]([c]2ccccc2)[c]2ccccc2)cc1.c1cc[c]([Ge]([c]2ccccc2)[c]2ccccc2)cc1
- GI50 [1]: 19.4 µM
- TGI [1]: 34 µM
- GI50 [3]: 15.3 µM
- TGI [3]: 32.5 µM
- GI50 [4]: 12.9 µM
- TGI [4]: 28.4 µM
- GI50 [7]: 14.4 µM
- TGI [7]: 28.6 µM
- GI50 [8]: 14.3 µM
- TGI [8]: 29 µM
- GI50 [9]: 12.9 µM
- TGI [9]: 27.5 µM

SMILES: COC(=O)C1=C(C)N(NC(N)=O)C2(N)N(NC(N)=O)C(C)=C(C(=O)OC)C12C#N (centres undefined)
- TGI [1]: > 100 µM
- TGI [2]: > 100 µM
- TGI [6]: > 100 µM
- TGI [3]: > 100 µM
- TGI [4]: > 100 µM
- TGI [7]: > 100 µM
- TGI [8]: > 100 µM
- TGI [9]: > 100 µM

SMILES: CC(=O)NNc1nc(C)c(C(=O)/C=C/c2ccc(N(C)C)cc2)s1
- TGI [1]: > 100 µM
- TGI [6]: > 100 µM
- TGI [3]: > 100 µM
- TGI [4]: > 100 µM
- TGI [8]: > 100 µM
- TGI [9]: > 100 µM

SMILES: Cc1[nH]c(N)nc(=S)c1CCCNc1ccccc1
- TGI [5]: > 100 µM

SMILES: COc1ccc(N=Nc2c(-c3ccccc3)nn(C(=O)CC(=O)Nc3ccc(OC)cc3)c2-c2ccccc2)cc1
- TGI [2]: 76.1 µM
- TGI [6]: > 100 µM
- TGI [3]: > 100 µM
- TGI [4]: > 100 µM
- TGI [7]: > 100 µM
- TGI [8]: > 100 µM
- TGI [9]: > 100 µM

SMILES: NC(N)=NCCCC(Nc1c2ccccc2nc2ccccc12)C(=O)O (centres undefined)
- TGI [1]: > 100 µM
- TGI [3]: > 100 µM
- TGI [7]: > 100 µM
- TGI [9]: > 100 µM

SMILES: O=C1NC(c2cccc3ccccc23)Nc2ccc(Cl)cc21 (centres undefined)
- TGI [5]: 0.000218 µM

SMILES: C=C1CC[C@@](C)(c2cc(Br)c(C)cc2OC(C)=O)[C@H]1C
- GI50 [5]: 11.7 µM
- TGI [5]: 26.6 µM

SMILES: O=C(CC(O)(C(F)(F)F)C(F)(F)F)c1cccs1
- TGI [5]: > 10 µM
